Laboratory results reported in US11572369B2, “Bicyclic pyridine compositions and methods of using the same for cancer therapy” (UNIVERSITY OF SOUTH CAROLINA, priority 2019, dated 2023).

Experiments:
MDA-MB-468 xenografts = MDA-MB-468 xenografts in NSG mice; format: in vivo, mouse; conditions: 66 days
Description: To evaluate the effect of CDK8/19 inhibition on in vivo growth of MDA-MB-468 xenografts, 1 million cells with 40% Matrigel ([…] total volume) were injected s.c. into the right flanks of immunodeficient NSG female mice (9 weeks old). 11 days after inoculation, mice were randomized by tumor size into two groups (n=9), with the average tumor volume 115 mm^3 in each group.

MV4-11 cells = test: MV4-11-Luc proliferation assay; conditions: Homo sapiens, MV4-11, read-out: Inhibition Potency MV4-11-Luc Assay
[1] = test system: NFκB activation in CDK8/19-deficient cells; test: NFκB reporter assay in CDK8/19 double-knockout 293 reporter cells; conditions: CDK8/19 double-knockout reporter cells
[2] = test system: alkaline phosphatase (ALPase) in bone marrow stromal cell line ST2; conditions: concentration that enhances ALPase activity to 200% of control; ST2 cells; Saito (2013); cited from earlier work
[3] = test system: MDA-MB-468 triple-negative breast cancer (TNBC) cells; test: MDA-MB-468 long-term treatment in vitro; format: cell-based, Human
[4] = MTD study, oral gavage b.i.d. 14 days, CD-1 mice; format: in vivo, mouse; conditions: for detrimental effects: 14 days
Description: The highest dose (120 mg/kg b.i.d.) caused about 10% body weight loss in female mice after 7-10 days of treatment but no further deterioration was observed through the rest of the treatment period (FIG. 12A).

Mouse PK, intravenous = format: in vivo; conditions: female FVB mice, i.v. 0.5 mg/kg, mixture
Description: Pharmacokinetics (PK) Assay. To measure mouse pharmacokinetics (PK), thienopyridine derivatives were dissolved in 5% dextrose and administered to female FVB mice at different dosing conditions; blood samples were collected at different time points and compound concentrations in the serum were measured by LC/MS/MS.

PRP4 = biological target: T1, PRP4 (Homo sapiens, UniProt Q13523); test: KINOMEscan; format: binding; conditions: 2000 nM
T1 construct: purchased DiscoveRx (KINOMEscan scanMAX panel)
T1 sequence (Q13523 whole entry): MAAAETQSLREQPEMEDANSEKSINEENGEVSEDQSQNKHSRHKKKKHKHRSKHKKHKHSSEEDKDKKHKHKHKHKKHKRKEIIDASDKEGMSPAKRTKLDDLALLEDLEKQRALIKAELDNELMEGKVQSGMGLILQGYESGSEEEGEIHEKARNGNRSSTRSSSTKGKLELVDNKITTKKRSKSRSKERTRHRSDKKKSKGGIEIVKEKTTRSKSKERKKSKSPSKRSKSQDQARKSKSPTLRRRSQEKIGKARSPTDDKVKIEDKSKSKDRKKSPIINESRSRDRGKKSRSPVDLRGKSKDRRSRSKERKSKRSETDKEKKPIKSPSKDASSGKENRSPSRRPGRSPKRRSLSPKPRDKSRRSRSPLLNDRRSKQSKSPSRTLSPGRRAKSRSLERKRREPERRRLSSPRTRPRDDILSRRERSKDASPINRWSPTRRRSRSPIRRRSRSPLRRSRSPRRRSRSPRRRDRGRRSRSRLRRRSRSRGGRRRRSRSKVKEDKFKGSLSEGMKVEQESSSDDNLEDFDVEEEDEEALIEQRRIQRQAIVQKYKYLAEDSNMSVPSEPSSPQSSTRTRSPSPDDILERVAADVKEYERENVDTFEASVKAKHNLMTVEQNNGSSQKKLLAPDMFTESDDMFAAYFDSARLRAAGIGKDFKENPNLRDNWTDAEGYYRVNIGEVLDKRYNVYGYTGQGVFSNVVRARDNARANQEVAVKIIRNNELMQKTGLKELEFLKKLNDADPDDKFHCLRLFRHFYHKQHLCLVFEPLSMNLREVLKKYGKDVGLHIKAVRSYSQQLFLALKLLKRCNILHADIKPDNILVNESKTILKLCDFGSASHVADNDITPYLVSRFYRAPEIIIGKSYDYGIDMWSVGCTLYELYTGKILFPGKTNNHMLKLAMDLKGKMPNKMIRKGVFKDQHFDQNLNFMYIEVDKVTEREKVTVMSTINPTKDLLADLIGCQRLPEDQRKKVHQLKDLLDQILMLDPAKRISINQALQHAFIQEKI
Description: (§1) Nat. Biotechnol. 23, 329-336 (2005).
(§2) Percent Control (% Ctrl).

FLT3(ITD, D835V) = test: KINOMEscan; format: binding; conditions: 2000 nM
Description: as §1, §2

FLT3 (ITD) = test: KINOMEscan; format: binding; conditions: 2000 nM
Description: as §1, §2

FLT3(ITD, F691L) = test: KINOMEscan; format: binding; conditions: 2000 nM
Description: as §1, §2

CDC2L5 = biological target: T2, CDC2L5 (Homo sapiens, UniProt Q14004); test: KINOMEscan; format: binding; conditions: 2000 nM
T2 construct: purchased DiscoverX (KINOMEscan service)
T2 sequence (Q14004 whole entry): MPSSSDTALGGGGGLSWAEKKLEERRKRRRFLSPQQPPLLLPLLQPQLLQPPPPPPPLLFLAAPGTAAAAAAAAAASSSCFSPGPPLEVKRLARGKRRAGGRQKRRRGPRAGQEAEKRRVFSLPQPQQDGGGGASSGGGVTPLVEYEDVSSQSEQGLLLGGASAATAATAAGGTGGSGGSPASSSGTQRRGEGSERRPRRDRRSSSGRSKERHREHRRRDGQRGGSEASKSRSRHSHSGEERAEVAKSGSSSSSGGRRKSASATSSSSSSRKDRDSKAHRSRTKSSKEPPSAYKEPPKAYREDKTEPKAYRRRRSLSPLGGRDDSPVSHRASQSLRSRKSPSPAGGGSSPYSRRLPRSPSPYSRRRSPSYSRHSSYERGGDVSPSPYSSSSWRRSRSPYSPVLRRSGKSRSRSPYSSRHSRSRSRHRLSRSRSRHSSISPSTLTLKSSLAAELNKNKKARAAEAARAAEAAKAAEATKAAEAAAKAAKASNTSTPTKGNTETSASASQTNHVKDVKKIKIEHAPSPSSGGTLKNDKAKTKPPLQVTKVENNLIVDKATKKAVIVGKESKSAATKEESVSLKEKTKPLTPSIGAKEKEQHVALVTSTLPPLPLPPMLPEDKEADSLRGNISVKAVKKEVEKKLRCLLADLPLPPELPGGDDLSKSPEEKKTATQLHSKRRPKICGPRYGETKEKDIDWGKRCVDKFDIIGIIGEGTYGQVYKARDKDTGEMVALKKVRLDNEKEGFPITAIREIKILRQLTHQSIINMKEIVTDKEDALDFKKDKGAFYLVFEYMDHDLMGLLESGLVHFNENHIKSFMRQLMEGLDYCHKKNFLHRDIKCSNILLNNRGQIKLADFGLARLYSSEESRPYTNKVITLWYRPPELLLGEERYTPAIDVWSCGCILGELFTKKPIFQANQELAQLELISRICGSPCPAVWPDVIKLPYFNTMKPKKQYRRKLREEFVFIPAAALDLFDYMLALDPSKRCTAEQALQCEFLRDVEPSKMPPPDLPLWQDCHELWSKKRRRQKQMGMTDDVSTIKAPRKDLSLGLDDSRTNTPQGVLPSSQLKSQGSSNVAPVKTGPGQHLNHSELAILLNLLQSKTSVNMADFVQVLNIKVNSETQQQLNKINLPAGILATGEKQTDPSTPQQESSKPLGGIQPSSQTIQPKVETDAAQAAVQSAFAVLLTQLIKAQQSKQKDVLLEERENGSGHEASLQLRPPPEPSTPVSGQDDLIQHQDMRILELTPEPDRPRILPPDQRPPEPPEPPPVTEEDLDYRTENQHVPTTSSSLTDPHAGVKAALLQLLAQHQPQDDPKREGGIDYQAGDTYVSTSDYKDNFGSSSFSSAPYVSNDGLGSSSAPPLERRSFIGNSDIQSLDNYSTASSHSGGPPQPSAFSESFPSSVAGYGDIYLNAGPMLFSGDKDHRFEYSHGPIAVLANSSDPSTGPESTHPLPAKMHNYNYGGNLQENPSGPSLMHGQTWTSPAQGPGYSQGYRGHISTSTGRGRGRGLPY
Description: as §1, §2

PFPK5(P.falciparum) = biological target: T3, PFPK5(P.falciparum) (Plasmodium falciparum, UniProt P61075); test: KINOMEscan; format: binding; conditions: 2000 nM
T3 construct: DNA label (for qPCR read-out); purchased DiscoveRx (KINOMEscan scanMAX service)
T3 sequence (P61075 whole entry): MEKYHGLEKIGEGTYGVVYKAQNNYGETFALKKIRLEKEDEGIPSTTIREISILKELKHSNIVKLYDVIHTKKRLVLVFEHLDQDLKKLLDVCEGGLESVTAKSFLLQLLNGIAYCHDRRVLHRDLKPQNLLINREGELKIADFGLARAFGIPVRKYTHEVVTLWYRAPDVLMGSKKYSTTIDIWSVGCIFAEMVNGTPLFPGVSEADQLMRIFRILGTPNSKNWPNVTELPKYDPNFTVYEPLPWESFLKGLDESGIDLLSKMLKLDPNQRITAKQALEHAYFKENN
Description: as §1, §2

[5] = Mouse oral PK of 15u/15w mixture at 30 mg/kg; conditions: female CD1 mice, oral 30 mg/kg of each compound, latest timepoint 8 hrs
[6] = test system: 4T1 murine triple-negative breast cancer; test: 4T1 TNBC lung metastasis survival after primary tumor removal; format: in vivo, mouse; conditions: 25 mg/kg oral b.i.d. after removal of primary tumor
GSK3A = biological target: T4, GSK3A (Homo sapiens, UniProt P49840); test: Kd Elect binding assay (DiscoverX); conditions: duplicates
T4 construct: DNA label (qPCR read-out); purchased DiscoverX (assay service)
T4 sequence (P49840 whole entry): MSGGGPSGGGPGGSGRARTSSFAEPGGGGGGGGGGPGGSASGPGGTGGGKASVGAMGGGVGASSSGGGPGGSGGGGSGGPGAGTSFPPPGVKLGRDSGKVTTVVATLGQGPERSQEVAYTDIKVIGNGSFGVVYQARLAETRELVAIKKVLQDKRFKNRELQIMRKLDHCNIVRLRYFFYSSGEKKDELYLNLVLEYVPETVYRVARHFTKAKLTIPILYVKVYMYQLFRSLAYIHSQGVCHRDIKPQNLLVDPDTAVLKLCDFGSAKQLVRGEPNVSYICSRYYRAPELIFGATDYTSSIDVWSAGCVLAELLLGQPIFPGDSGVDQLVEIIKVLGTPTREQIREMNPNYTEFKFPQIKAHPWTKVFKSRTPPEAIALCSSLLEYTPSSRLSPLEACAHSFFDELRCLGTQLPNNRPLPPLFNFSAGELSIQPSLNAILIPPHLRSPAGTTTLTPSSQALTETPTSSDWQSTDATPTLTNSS
Description: as §1

CDK8 = biological target: T5, CDK8 (Homo sapiens, UniProt P49336); test: Kd Elect binding assay (DiscoverX); conditions: duplicates
T5 construct: DNA label (qPCR read-out); purchased DiscoverX (assay service)
T5 sequence (P49336 whole entry): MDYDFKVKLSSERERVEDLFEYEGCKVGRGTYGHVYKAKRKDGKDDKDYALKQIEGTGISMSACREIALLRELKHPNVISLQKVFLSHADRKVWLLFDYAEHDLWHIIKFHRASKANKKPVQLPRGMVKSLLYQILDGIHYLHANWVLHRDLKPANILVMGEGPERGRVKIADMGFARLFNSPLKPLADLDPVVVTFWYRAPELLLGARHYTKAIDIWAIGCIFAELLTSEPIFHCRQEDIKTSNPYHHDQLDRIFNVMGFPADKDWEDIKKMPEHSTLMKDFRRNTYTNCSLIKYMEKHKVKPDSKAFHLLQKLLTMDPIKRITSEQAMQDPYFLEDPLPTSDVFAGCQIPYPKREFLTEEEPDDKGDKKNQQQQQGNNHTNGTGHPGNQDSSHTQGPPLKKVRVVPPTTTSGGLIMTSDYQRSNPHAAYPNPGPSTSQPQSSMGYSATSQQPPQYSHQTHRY
Description: as §1

CSNK1A1 = biological target: T6, CSNK1A1 (Homo sapiens, UniProt P48729); test: Kd Elect binding assay (DiscoverX); conditions: duplicates
T6 construct: DNA label (qPCR read-out); purchased DiscoverX (assay service)
T6 sequence (P48729 whole entry): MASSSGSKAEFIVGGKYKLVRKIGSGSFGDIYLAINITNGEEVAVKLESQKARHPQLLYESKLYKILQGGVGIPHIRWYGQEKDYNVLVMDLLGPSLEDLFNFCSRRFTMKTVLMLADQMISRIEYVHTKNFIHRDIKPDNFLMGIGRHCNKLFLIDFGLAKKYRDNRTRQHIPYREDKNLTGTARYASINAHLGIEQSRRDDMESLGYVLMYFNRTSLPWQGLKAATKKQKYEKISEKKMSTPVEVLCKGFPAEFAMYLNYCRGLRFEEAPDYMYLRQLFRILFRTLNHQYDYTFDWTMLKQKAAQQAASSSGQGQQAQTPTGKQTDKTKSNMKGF
Description: as §1

CDK19 = biological target: T7, CDK19 (Homo sapiens, UniProt Q9BWU1); test: Kd Elect binding assay (DiscoverX); conditions: duplicates
T7 construct: DNA label (qPCR read-out); purchased DiscoverX (assay service)
Description: as §1

RIOK2 = biological target: T8, RIOK2 (Homo sapiens, UniProt Q9BVS4); test: Kd Elect binding assay (DiscoverX); conditions: duplicates
T8 construct: DNA label (qPCR read-out); purchased DiscoverX (assay service)
T8 sequence (Q9BVS4 whole entry): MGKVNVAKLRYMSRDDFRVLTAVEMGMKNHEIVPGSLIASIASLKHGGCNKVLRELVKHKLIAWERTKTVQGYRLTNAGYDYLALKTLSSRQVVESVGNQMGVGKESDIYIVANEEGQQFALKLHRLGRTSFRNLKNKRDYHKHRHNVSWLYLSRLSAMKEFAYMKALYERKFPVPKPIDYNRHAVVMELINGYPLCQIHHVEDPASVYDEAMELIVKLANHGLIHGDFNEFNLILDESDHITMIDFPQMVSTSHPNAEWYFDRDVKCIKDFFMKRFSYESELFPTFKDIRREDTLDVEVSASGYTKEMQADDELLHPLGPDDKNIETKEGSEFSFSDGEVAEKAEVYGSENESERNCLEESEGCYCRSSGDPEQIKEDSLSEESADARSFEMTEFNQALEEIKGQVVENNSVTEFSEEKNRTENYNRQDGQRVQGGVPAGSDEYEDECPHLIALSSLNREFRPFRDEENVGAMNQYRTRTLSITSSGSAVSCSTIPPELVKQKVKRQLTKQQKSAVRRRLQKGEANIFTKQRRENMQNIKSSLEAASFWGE
Description: as §1

MYC-CaP-CR tumors = test: MYC-CaP-CR subcutaneous tumors in intact FVB male mice; format: in vivo, mouse; conditions: intact (uncastrated) FVB male mice
MYC-CAP-CR cells = test: Short-term cell proliferation assay, MYC-CAP-CR; format: cell-based, murine; conditions: androgen-containing media
[7] = test system: PSA expression in CRPC cell line C4-2; test: PSA expression in C4-2 cell culture supernatant; format: cell-based; conditions: C4-2, 96 h, read-out: IC50, suppression of PSA expression
Description: CDK8/19 inhibition decreases the expression of certain androgen-receptor (AR) inducible genes including PSA, the most common marker of prostate cancer, and the growth of castration-refractory prostate cancers (CRPC).

Mouse PK, oral 1 mg/kg = format: in vivo; conditions: female, FVB, serum, mice, oral (gavage) 1 mg/kg
CDK8/19 = test: NFκB Activity Assay (NFκB luciferase reporter, parental 293 cells); format: cell-based; conditions: read-out: Inhibition Potency HEK293-NFkB-Luc Assay
[8] = medicated diet 250 ppm plus daily gavage 5 then 8 mg/kg

CN(C)C(=O)c1ccc(N2CCCN(c3ccnc4sc(C(N)=O)c(N)c34)CC2)cc1 [15u, 3-amino-4-(4-(4-(dimethylcarbamoyl)phenyl)-1,4-diazepan-1-yl)thieno[2,3-b]pyridine-2-carboxamide]
mouse body weights (MDA-MB-468 xenografts; long-term treatment): no detrimental effects | final tumor weights (MDA-MB-468 xenografts; [8]): significantly lower | tumor volume (MDA-MB-468 xenografts; [8]): significant reduction in tumor volume | IC50 (MV4-11 cells): 30 nM | effect on NFκB activation in CDK8/19-deficient cells [1]: no effect | ALP activity Assay EC200 [2]: 31.9 nM | response upon long-term treatment in vitro [3]: responsive | body weight loss ([4]; female CD-1 mice, 120 mg/kg b.i.d., after 7-10 days of treatment): about 10% | detrimental effects ([4]; female CD-1 mice, doses up to 60 mg/kg b.i.d.): No detrimental effects | detrimental effects ([4]; male CD-1 mice, 60 and 120 mg/kg b.i.d.): No detrimental effects | Elimination rate (Mouse PK, intravenous): 4.03 h⁻¹ | AUC (Mouse PK, intravenous; mouse, serum, iv): 92.1 ng·h/mL | C0 (Mouse PK, intravenous; mouse, serum, iv): 328 ng/mL | Vd (Mouse PK, intravenous; mouse, serum, iv): 1.52 L/kg | half-life (Mouse PK, intravenous; mouse, serum, iv): 10.2 min | % Ctrl (PRP4): 100 % Ctrl | % Ctrl (FLT3(ITD, D835V)): 41 % Ctrl | % Ctrl (FLT3 (ITD)): 82 % Ctrl | % Ctrl (FLT3(ITD, F691L)): 95 % Ctrl | % Ctrl (CDC2L5): 71 % Ctrl | % Ctrl (PFPK5(P.falciparum)): 68 % Ctrl | average serum concentration at 8 hrs as % of Cmax [5]: 64.4% | mouse survival of the metastatic disease [6]: significantly increased mouse survival | Kd (GSK3A): 5600 nM | Kd (CDK8): 78 nM | Kd (CSNK1A1): 230 nM | Kd (CDK19): 65 nM | Kd (RIOK2): 240 nM | tumor volume and weight (MYC-CaP-CR tumors): modest effect | MYC-CAP-CR cell growth (MYC-CAP-CR cells): little effect | IC50 [7]: 27.6 nM | AUC (Mouse PK, oral 1 mg/kg): 79.3 ng·h/mL | half-life (Mouse PK, oral 1 mg/kg): 78 min | bioavailability (Mouse PK, oral 1 mg/kg; read-out: Bioavailability (F %)): 43%

[2H]C([2H])([2H])N(C(=O)c1ccc(N2CCCN(c3ccnc4sc(C(N)=O)c(N)c34)CC2)cc1)C([2H])([2H])[2H] [15u_D6, 3-amino-4-(4-(4-(bis(methyl-d3)carbamoyl)phenyl)-1,4-diazepan-1-yl)thieno[2,3-b]pyridine-2-carboxamide]
% Ctrl (PRP4): 88 % Ctrl | % Ctrl (FLT3(ITD, D835V)): 34 % Ctrl | % Ctrl (FLT3 (ITD)): 72 % Ctrl | % Ctrl (FLT3(ITD, F691L)): 75 % Ctrl | % Ctrl (CDC2L5): 80 % Ctrl | % Ctrl (PFPK5(P.falciparum)): 67 % Ctrl | IC50 (CDK8/19): 7.7 nM
